Reference: ChEMBL document CHEMBL3885881, “DrugMatrix”

Species on record: Rattus norvegicus
Assay: DrugMatrix - Regimen: Daily Repeat
Assay type: toxicity, organism-based, Sprague-Dawley
Set-up: regimen Daily Repeat, gender Male, age 6-8 weeks
Conditions: in vivo, po, route oral GAVAGE, vehicle .5 % CMC; for ABSOLUTE LYMPHOCYTE / ABSOLUTE MONOCYTE / ABSOLUTE SEGMENTED NEUTROPHIL / BASOPHIL / EOSINOPHIL / ERYTHROCYTE COUNT / HEMATOCRIT / HEMOGLOBIN / LEUKOCYTE COUNT / LYMPHOCYTE / MEAN CORPUSCULAR HEMOGLOBIN / MEAN CORPUSCULAR HEMOGLOBIN CONCENTRATION / MEAN CORPUSCULAR VOLUME / MONOCYTE / NEUTROPHIL / NUCLEATED RED BLOOD CELLS / PLATELET COUNT / ABSOLUTE BASOPHIL / ABSOLUTE EOSINOPHIL: tissue Blood; for ALANINE AMINOTRANSFERASE / ALBUMIN / ALKALINE PHOSPHATASE / ASPARTATE AMINOTRANSFERASE / BLOOD UREA NITROGEN / CARBON DIOXIDE / CHLORIDE / CHOLESTEROL / CREATINE PHOSPHOKINASE / CREATININE / GLUCOSE / LACTATE DEHYDROGENASE / LIPASE / PHOSPHORUS / POTASSIUM / SODIUM / TOTAL BILIRUBIN / TOTAL PROTEIN / URIC ACID: tissue Plasma
[1] = 11 mg/kg, 120 h, dose level Low, time 5 day
[2] = 110 mg/kg, 72 h, dose level M1, time 3 day
[3] = 110 mg/kg, 120 h, dose level M1, time 5 day

## COc1ccc2c3c1O[C@H]1C[C@@H](O)C=C[C@@]31CCN(C)C2 [GALANTAMINE]
[1]
  ABSOLUTE LYMPHOCYTE: 13451.33 CELLS/uL
  ABSOLUTE MONOCYTE: 58.33 CELLS/uL
  ABSOLUTE SEGMENTED NEUTROPHIL: 1323.67 CELLS/uL
  BASOPHIL: 0%
  EOSINOPHIL: 0%
  ERYTHROCYTE COUNT: 5.81 x10E6/uL
  HEMATOCRIT: 35.73%
  HEMOGLOBIN: 14.27 G/DL
  LEUKOCYTE COUNT: 14.83 x10E3/uL
  LYMPHOCYTE: 90.33%
  MEAN CORPUSCULAR HEMOGLOBIN: 24.57 pg
  MEAN CORPUSCULAR HEMOGLOBIN CONCENTRATION: 39.93 G/DL
  MEAN CORPUSCULAR VOLUME: 61.57 fL
  MONOCYTE: 0.33%
  NEUTROPHIL: 9.33%
  NUCLEATED RED BLOOD CELLS: 0 /100WBC
  PLATELET COUNT: 1163.33 x10E3/uL
  ALANINE AMINOTRANSFERASE: 48.67 u/L
  ALBUMIN: 4.27 G/DL
  ALKALINE PHOSPHATASE: 399 u/L
  ASPARTATE AMINOTRANSFERASE: 74.67 u/L
  BLOOD UREA NITROGEN: 20.33 mg/dL
  CARBON DIOXIDE: 28.33 mmol/L
  CHLORIDE: 99.67 MEQ/L
  CHOLESTEROL: 76.67 mg/dL
  CREATINE PHOSPHOKINASE: 330.67 u/L
  CREATININE: 0.19 mg/dL
  GLUCOSE: 158.67 mg/dL
  LACTATE DEHYDROGENASE: 135 u/L
  LIPASE: 10 u/L
  PHOSPHORUS: 12.37 mg/dL
  POTASSIUM: 6.09 MEQ/L
  SODIUM: 144.2 MEQ/L
  TOTAL BILIRUBIN: 0.23 mg/dL
  TOTAL PROTEIN: 6.17 G/DL
  URIC ACID: 1.33 mg/dL
[2]
  ABSOLUTE BASOPHIL: 0 CELLS/uL
  ABSOLUTE EOSINOPHIL: 37.33 CELLS/uL
  ABSOLUTE LYMPHOCYTE: 14169 CELLS/uL
  ABSOLUTE MONOCYTE: 124.67 CELLS/uL
  ABSOLUTE SEGMENTED NEUTROPHIL: 769 CELLS/uL
  BASOPHIL: 0%
  EOSINOPHIL: 0.33%
  ERYTHROCYTE COUNT: 5.81 x10E6/uL
  HEMATOCRIT: 36.57%
  HEMOGLOBIN: 14.27 G/DL
  LEUKOCYTE COUNT: 15.1 x10E3/uL
  LYMPHOCYTE: 94%
  MEAN CORPUSCULAR HEMOGLOBIN: 24.57 pg
  MEAN CORPUSCULAR HEMOGLOBIN CONCENTRATION: 39 G/DL
  MEAN CORPUSCULAR VOLUME: 62.97 fL
  MONOCYTE: 0.67%
  NEUTROPHIL: 5%
  NUCLEATED RED BLOOD CELLS: 0 /100WBC
  PLATELET COUNT: 1366 x10E3/uL
  ALANINE AMINOTRANSFERASE: 64.33 u/L
  ALBUMIN: 4.03 G/DL
  ALKALINE PHOSPHATASE: 411.33 u/L
  ASPARTATE AMINOTRANSFERASE: 91 u/L
  BLOOD UREA NITROGEN: 16 mg/dL
  CARBON DIOXIDE: 33 mmol/L
  CHLORIDE: 102.67 MEQ/L
  CHOLESTEROL: 70.67 mg/dL
  CREATINE PHOSPHOKINASE: 247.67 u/L
  CREATININE: 0.2 mg/dL
  GLUCOSE: 131.33 mg/dL
  LACTATE DEHYDROGENASE: 252 u/L
  LIPASE: 8.33 u/L
  PHOSPHORUS: 11.67 mg/dL
  POTASSIUM: 7.08 MEQ/L
  SODIUM: 144.3 MEQ/L
  TOTAL BILIRUBIN: 0.23 mg/dL
  TOTAL PROTEIN: 5.5 G/DL
  URIC ACID: 1.43 mg/dL
[3]
  ABSOLUTE BASOPHIL: 0 CELLS/uL
  ABSOLUTE EOSINOPHIL: 67.67 CELLS/uL
  ABSOLUTE LYMPHOCYTE: 15229.33 CELLS/uL
  ABSOLUTE MONOCYTE: 0 CELLS/uL
  ABSOLUTE SEGMENTED NEUTROPHIL: 1603 CELLS/uL
  BASOPHIL: 0%
  EOSINOPHIL: 0.33%
  ERYTHROCYTE COUNT: 5.71 x10E6/uL
  HEMATOCRIT: 35.4%
  HEMOGLOBIN: 14.07 G/DL
  LEUKOCYTE COUNT: 16.9 x10E3/uL
  LYMPHOCYTE: 90%
  MEAN CORPUSCULAR HEMOGLOBIN: 24.67 pg
  MEAN CORPUSCULAR HEMOGLOBIN CONCENTRATION: 39.77 G/DL
  MEAN CORPUSCULAR VOLUME: 62.03 fL
  MONOCYTE: 0%
  NEUTROPHIL: 9.67%
  NUCLEATED RED BLOOD CELLS: 0 /100WBC
  PLATELET COUNT: 1316.67 x10E3/uL
  ALANINE AMINOTRANSFERASE: 48 u/L
  ALBUMIN: 4.1 G/DL
  ALKALINE PHOSPHATASE: 401.67 u/L
  ASPARTATE AMINOTRANSFERASE: 99 u/L
  BLOOD UREA NITROGEN: 14.33 mg/dL
  CARBON DIOXIDE: 24.67 mmol/L
  CHLORIDE: 101.67 MEQ/L
  CHOLESTEROL: 60.33 mg/dL
  CREATINE PHOSPHOKINASE: 541 u/L
  CREATININE: 0.27 mg/dL
  GLUCOSE: 132.67 mg/dL
  LACTATE DEHYDROGENASE: 653 u/L
  LIPASE: 11 u/L
  PHOSPHORUS: 13 mg/dL
  POTASSIUM: 6.92 MEQ/L
  SODIUM: 143.03 MEQ/L
  TOTAL BILIRUBIN: 0.23 mg/dL
  TOTAL PROTEIN: 5.77 G/DL
  URIC ACID: 1.8 mg/dL
